Read-outs that look alike come from different tables or passages of the source.
System: patients with acute coronary syndromes undergoing PCI
[1] = 48 hours, MITT With STEMI, Cangrelor vs Clopidogrel
[2] = 48 hours, MITT Without STEMI, Cangrelor vs Clopidogrel
[3] = 48 hours, MITT, Cangrelor vs Clopidogrel

In the case of `CSCCNc1nc(SCCC(F)(F)F)nc2c1ncn2[C@@H]1O[C@H](COP(=O)(O)OP(=O)(O)C(Cl)(Cl)P(=O)(O)O)[C@@H](O)[C@H]1O` [Cangrelor, cangrelor], the All-cause mortality (48 hours, MITT) is reported as 9 (0.2) no. (%), the IDR (48 hours, MITT) is reported as 19 (0.4) no. (%) and the MI (48 hours, MITT) is reported as 292 (6.7) no. (%). The Mortality/MI/IDR (48 hours, MITT) was 308 (7.1) no. (%), the “Mortality/Q-wave MI/IDR” value (48 hours, MITT) was 30 (0.7) no. (%) and the “Mortality/Q-wave MI/Stent thrombosis” value (48 hours, MITT) was 23 (0.5) no. (%). The “Q-wave MI” value (48 hours, MITT) was 4 (0.1) no. (%), the Stent thrombosis (48 hours, MITT) was 11 (0.3) no. (%) and the Stroke (48 hours, MITT) was 6 (0.1) no. (%). For the same compound, the All-cause mortality (48 hours, MITT With STEMI) was 1 (0.2) no. (%), the IDR (48 hours, MITT With STEMI) was 6 (1.3) no. (%) and the MI (48 hours, MITT With STEMI) was 14 (3.1) no. (%). For the same compound, the Mortality/MI/IDR (48 hours, MITT With STEMI) was 18 (4.0) no. (%), the “Mortality/Q-wave MI/IDR” value (48 hours, MITT With STEMI) was 7 (1.6) no. (%) and the “Mortality/Q-wave MI/Stent thrombosis” value (48 hours, MITT With STEMI) was 5 (1.1) no. (%). The “Q-wave MI” value (48 hours, MITT With STEMI) was 0 (0.0) no. (%), the Stent thrombosis (48 hours, MITT With STEMI) was 4 (0.9) no. (%) and the Stroke (48 hours, MITT With STEMI) was 0 (0.0) no. (%). The “All-cause mortality OR (95% CI)” value [1] was 0.249 (0.028, 2.235), the “IDR OR (95% CI)” value [1] was 0.857 (0.286, 2.571) and the “MI OR (95% CI)” value [1] was 1.778 (0.739, 4.282). For the same compound, the “Mortality/MI/IDR OR (95% CI)” value [1] was 1.064 (0.541, 2.092), the “Mortality/Q-wave MI/IDR OR (95% CI)” value [1] was 0.632 (0.243, 1.645) and the “Mortality/Q-wave MI/Stent thrombosis OR (95% CI)” value [1] was 0.622 (0.202, 1.917). The “Stent thrombosis OR (95% CI)” value [1] was 1.002 (0.249, 4.033), the All-cause mortality (48 hours, MITT Without STEMI) was 8 (0.2) no. (%) and the IDR (48 hours, MITT Without STEMI) was 13 (0.3) no. (%). For the same compound, the MI (48 hours, MITT Without STEMI) was 278 (7.1) no. (%), the “Mortality/MI/IDR (Prespecified primary endpoint)” value (48 hours, MITT Without STEMI) was 290 (7.5) no. (%) and the “Mortality/Q-wave MI/IDR” value (48 hours, MITT Without STEMI) was 23 (0.6) no. (%). For the same compound, the “Mortality/Q-wave MI/Stent thrombosis” value (48 hours, MITT Without STEMI) was 18 (0.5) no. (%), the “Q-wave MI” value (48 hours, MITT Without STEMI) was 4 (0.1) no. (%) and the Stent thrombosis (48 hours, MITT Without STEMI) was 7 (0.2) no. (%). For the same compound, the Stroke (48 hours, MITT Without STEMI) was 6 (0.2) no. (%), the “primary composite of all-cause mortality, MI, or ischemia-driven revascularization” value (48 hours, MITT Without STEMI) was 7.5% and the “All-cause mortality OR (95% CI)” value [2] was 1.591 (0.520, 4.869). For the same compound, the “IDR OR (95% CI)” value [2] was 0.560 (0.283, 1.108), the “MI OR (95% CI)” value [2] was 1.085 (0.910, 1.294) and the “Mortality/MI/IDR (Prespecified primary endpoint) OR (95% CI)” value [2] was 1.048 (0.883, 1.243). For the same compound, the “Mortality/Q-wave MI/IDR OR (95% CI)” value [2] was 0.670 (0.394, 1.140), the “Mortality/Q-wave MI/Stent thrombosis OR (95% CI)” value [2] was 0.777 (0.419, 1.442) and the “Q-wave MI OR (95% CI)” value [2] was 0.397 (0.124, 1.267). The “Stent thrombosis OR (95% CI)” value [2] was 0.632 (0.245, 1.631), the “Stroke OR (95% CI)” value [2] was 0.852 (0.286, 2.536) and the “All-cause mortality OR (95% CI)” value [3] was 0.995 (0.394, 2.508). The “IDR OR (95% CI)” value [3] was 0.628 (0.353, 1.118), the “MI OR (95% CI)” value [3] was 1.107 (0.932, 1.315) and the “Mortality/MI/IDR OR (95% CI)” value [3] was 1.049 (0.889, 1.238). For the same compound, the “Mortality/Q-wave MI/IDR OR (95% CI)” value [3] was 0.661 (0.416, 1.051), the “Mortality/Q-wave MI/Stent thrombosis OR (95% CI)” value [3] was 0.737 (0.429, 1.265) and the “Q-wave MI OR (95% CI)” value [3] was 0.397 (0.125, 1.268). The “Stent thrombosis OR (95% CI)” value [3] was 0.729 (0.334, 1.588), the “Stroke OR (95% CI)” value [3] was 0.852 (0.286, 2.538) and the All-cause mortality (48 hours, Safety population) was 9 (0.2) no. (%). The IDR (48 hours, Safety population) was 19 (0.4) no. (%), the MI (48 hours, Safety population) was 294 (6.7) no. (%) and the Mortality/MI/IDR (48 hours, Safety population) was 310 (7.1) no. (%). The “Mortality/Q-wave MI/IDR” value (48 hours, Safety population) was 30 (0.7) no. (%), the “Mortality/Q-wave MI/Stent thrombosis” value (48 hours, Safety population) was 23 (0.5) no. (%) and the “Q-wave MI” value (48 hours, Safety population) was 4 (0.1) no. (%). The Stent thrombosis (48 hours, Safety population) was 11 (0.3) no. (%), the Stroke (48 hours, Safety population) was 6 (0.1) no. (%) and the All-cause mortality (30 days, ITT) was 40 (0.9) no. (%). For the same compound, the IDR (30 days, ITT) was 62 (1.4) no. (%), the MI (30 days, ITT) was 318 (7.3) no. (%) and the Mortality/MI/IDR (30 days, ITT) was 381 (8.7) no. (%). For the same compound, the “Mortality/Q-wave MI/IDR” value (30 days, ITT) was 102 (2.3) no. (%), the “Mortality/Q-wave MI/Stent thrombosis” value (30 days, ITT) was 68 (1.6) no. (%) and the “Q-wave MI” value (30 days, ITT) was 9 (0.2) no. (%).

Source: US8680052B1, “Methods of treating, reducing the incidence of, and/or preventing ischemic events” (The Medicines Company, priority 2013, dated 2014)
